Measured values taken from patent publication US20100120763A1, “IMIDAZO[5,1-C][1,2,4]BENZOTRIAZINE DERIVATIVES AS INHIBITORS OF PHOSPHODIESTERASES” (priority 2008, published 2010).

Columns and labels:
PDE2A = biological target: T1, PDE2A (Homo sapiens, UniProt O00408); assay: Inhibition of recombinant PDE2A (expressed in baculovirus/SF21-cells), [3H]-cAMP SPA; type: biochemical
T1 construct: made in house; host or cells: SF21 insect cells (baculovirus)
Experimental: Inhibition of Recombinant PDE2A (Expressed in Baculovirus/SF21-Cells)
PDE2A (NM002599) was cloned and the gene was inserted in the baculovirus and the enzyme-protein expressed in SF21-cells. The enzyme was isolated from these cells by harvesting the cells by an centrifugation at 200 g to collect the cells. The cells were resuspended in 50 mM Tris-HCl/5 mM MgCl2 buffer (pH=7.4) (Sigma, Deisenhofen, Germany; Merck, Darmstadt, Germany) and lysed by a sonication of the cells (three times for 15 seconds, Labsonic U, Fa. Braun, Degersheim, Switzerland, level “high”). The membrane fraction of PDE2A was obtained by a centrifugation at 48 000 g for 1 h, resuspended in buffer and stored at −70° C.
PDE2A activity was determined in a one step procedure in microtiterplates. The reaction mixture of 100 μl contained 50 mM Tris-HCl/5 mM MgCl2 buffer (pH=7.4) (Sigma, Deisenhofen, Germany; Merck, Darmstadt, Germany), 0.5 μM [3H]-cAMP (Amersham, Buckinghamshire, UK), 1000 nM cGMP and the enzyme. Non-specific enzyme activity was tested in the absence of cGMP. The reaction was initiated by addition of the substrate solution and was carried out at 37° C. for 30 minutes. Enzymatic activity then was stopped by addition of 25 μl SPA-beads (Amersham-Pharmacia). One hour later the mixture was measured in a liquid scintillation counter for microtiterplates (Microbeta Trilux). For pipetting of the incubation mixture the robot Biomek (Fa. Beckman) was routinely used.
For determination of IC50 values the Hill-plot, 2-parameter-model, was used.

PDE10A = biological target: T2, PDE10A (Homo sapiens, UniProt Q9Y233); assay: Inhibition of recombinant PDE10A (baculovirus/SF21 system), [3H]-cAMP SPA; type: biochemical; details: recombinant PDE10A1, cytosolic; 0.1 μM [3H]-cAMP, 37° C., 30 minutes; read-out: PDE10A IC50
T2 construct: made in house; host or cells: SF21 insect cells (baculovirus)
Experimental: Inhibition of Recombinant PDE10A (Baculovirus/SF21 System)
The gene was than inserted into a baculovirus vector, ligated with the baculovirus DNA. The enzyme-protein was expressed in SF21-cells. The enzyme was isolated from these cells by harvesting the cells by an centrifugation at 500 g to collect the cells.
The cells were resuspended in 50 mM Tris-HCl/1 mM EDTA/250 mM Sucrose buffer, pH=7.4 (Sigma, Deisenhofen, Germany; Merck, Darmstadt, Germany) and lysed by sonification of the cells (three times for 15 seconds, Labsonic U, Fa. Braun, Degersheim, Switzerland, level “high”). The cytosolic PDE10A was obtained by a centrifugation at 48,000 g for 1 h in the supernatant and stored at −70° C.
PDE activity was determined in a one step procedure in microtiter plates. The reaction mixture of 100 μl contained 50 mM Tris-HCl/5 mM MgCl2 buffer (pH=7.4, Sigma, Deisenhofen, Germany; Merck, Darmstadt, Germany) 0.1 μM [3H]-cAMP (Amersham, Buckinghamshire, UK) and the enzyme. Non-specific enzyme activity was determined without the enzyme. The reaction was initiated by addition of the substrate solution and was carried out at 37° C. for 30 minutes. Enzymatic activity then was stopped by addition of 25 μl Ysi-SPA-beads (Amersham-Pharmacia). One hour later the mixture was measured in a liquid scintillation counter for microtiter plates (Microbeta Trilux). The Biomek 2000 (Beckman) was used routinely for pipetting of the incubation mixture. […] For determination of IC50 values the Hill-plot, 2-parameter-model, was used.

T1 sequence (O00408 whole entry): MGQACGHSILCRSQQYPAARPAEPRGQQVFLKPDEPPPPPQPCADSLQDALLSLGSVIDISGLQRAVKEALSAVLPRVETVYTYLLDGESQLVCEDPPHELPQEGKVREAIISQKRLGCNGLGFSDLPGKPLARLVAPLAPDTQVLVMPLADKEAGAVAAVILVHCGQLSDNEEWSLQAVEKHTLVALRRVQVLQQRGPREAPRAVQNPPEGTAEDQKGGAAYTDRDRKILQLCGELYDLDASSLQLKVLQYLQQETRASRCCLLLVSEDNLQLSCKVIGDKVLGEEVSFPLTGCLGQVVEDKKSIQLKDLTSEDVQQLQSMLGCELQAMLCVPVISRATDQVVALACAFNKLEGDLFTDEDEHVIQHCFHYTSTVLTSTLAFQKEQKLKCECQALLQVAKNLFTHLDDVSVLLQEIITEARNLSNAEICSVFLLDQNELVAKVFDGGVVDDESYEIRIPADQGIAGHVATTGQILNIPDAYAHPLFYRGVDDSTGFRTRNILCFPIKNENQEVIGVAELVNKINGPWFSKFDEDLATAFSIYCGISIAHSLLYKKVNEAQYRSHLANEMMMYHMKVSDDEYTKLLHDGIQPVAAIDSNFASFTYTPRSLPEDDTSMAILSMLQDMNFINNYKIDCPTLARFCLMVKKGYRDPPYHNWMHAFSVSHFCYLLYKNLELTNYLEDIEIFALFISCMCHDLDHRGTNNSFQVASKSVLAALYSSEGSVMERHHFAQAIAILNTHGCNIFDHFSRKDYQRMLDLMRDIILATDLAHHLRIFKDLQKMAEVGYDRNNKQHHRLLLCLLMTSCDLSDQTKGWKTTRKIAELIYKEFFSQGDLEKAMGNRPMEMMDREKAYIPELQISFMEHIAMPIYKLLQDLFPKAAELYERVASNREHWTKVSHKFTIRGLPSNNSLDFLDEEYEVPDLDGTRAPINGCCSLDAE
T2 sequence (Q9Y233 1-779 isoform Q9Y233-1): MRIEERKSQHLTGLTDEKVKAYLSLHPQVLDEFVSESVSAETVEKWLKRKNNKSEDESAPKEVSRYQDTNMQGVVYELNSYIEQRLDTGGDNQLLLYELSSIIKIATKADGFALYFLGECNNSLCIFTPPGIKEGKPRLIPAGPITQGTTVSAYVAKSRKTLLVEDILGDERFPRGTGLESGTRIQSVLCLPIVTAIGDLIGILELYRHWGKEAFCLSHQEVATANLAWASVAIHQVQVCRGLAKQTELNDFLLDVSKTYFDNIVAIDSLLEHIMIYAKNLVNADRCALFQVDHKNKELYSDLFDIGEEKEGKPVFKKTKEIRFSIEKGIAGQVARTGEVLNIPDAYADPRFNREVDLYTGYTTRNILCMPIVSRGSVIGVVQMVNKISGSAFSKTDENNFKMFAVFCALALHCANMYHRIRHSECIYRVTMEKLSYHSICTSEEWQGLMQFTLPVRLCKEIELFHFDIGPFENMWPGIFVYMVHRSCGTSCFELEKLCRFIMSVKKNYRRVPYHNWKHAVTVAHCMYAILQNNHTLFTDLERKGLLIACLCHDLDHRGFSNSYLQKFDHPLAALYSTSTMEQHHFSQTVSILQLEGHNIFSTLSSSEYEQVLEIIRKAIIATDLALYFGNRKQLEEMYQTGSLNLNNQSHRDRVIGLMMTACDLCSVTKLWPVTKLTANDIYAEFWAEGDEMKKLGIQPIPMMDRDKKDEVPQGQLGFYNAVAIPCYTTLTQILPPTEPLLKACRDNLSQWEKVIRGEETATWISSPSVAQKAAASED

| IC50 (PDE2A) [nM] | IC50 (PDE10A) [nM] | Compound |
| --- | --- | --- |
| 55 | 8.37 | CCOc1ccc(Cl)c(-c2nc(C)c3nnc4c(OC)cc(F)cc4n23)c1 [Example 108, 1-(2-chloro-5-ethoxyphenyl)-8-fluoro-6-methoxy-3-methylimidazo[5,1-c][1,2,4]benzotriazine] |
| > 5000 | 102 | COc1cc(F)cc2c1nnc1c(C)nc(-c3cccnc3)n12 [Example 109, 8-fluoro-6-methoxy-3-methyl-1-pyridin-3-ylimidazo[5,1-c][1,2,4]benzotriazine] |
| 609 | 8.52 | COc1cc(F)cc2c1nnc1c(C)nc(-c3ccc(F)cc3C)n12 [Example 110, 8-fluoro-1-(4-fluoro-2-methylphenyl)-6-methoxy-3-methylimidazo[5,1-c][1,2,4]benzotriazine] |
| 324 | 3.01 | COc1cc(F)cc2c1nnc1c(C)nc(-c3ccc(F)cc3Cl)n12 [Example 111, 1-(2-chloro-4-fluorophenyl)-8-fluoro-6-methoxy-3-methylimidazo[5,1-c][1,2,4]benzotriazine] |
| 636 | 1.88 | COc1cc(F)cc2c1nnc1c(C)nc(-c3ccc(C)cc3Cl)n12 [Example 112, 1-(2-chloro-4-methylphenyl)-8-fluoro-6-methoxy-3-methylimidazo[5,1-c][1,2,4]benzotriazine] |
| 1060 | 17.1 | COc1cc(F)cc2c1nnc1c(C)nc(-c3ccc(C)cc3F)n12 [Example 114, 8-fluoro-1-(2-fluoro-4-methylphenyl)-6-methoxy-3-methylimidazo[5,1-c][1,2,4]benzotriazine] |
| > 10000 | 67 | COc1cc(F)cc2c1nnc1c(C)nc(-c3c(C)noc3C)n12 [Example 115, 1-(3,5-dimethylisoxazol-4-yl)-8-fluoro-6-methoxy-3-methylimidazo[5,1-c][1,2,4]benzotriazine] |
| 1500 | 13.1 | COc1cc(F)cc2c1nnc1c(C)nc(-c3c(C)nn(C)c3C)n12 [Example 116, 8-fluoro-6-methoxy-3-methyl-1-(1,3,5-trimethyl-1H-pyrazol-4-yl)imidazo[5,1-c][1,2,4]benzotriazine] |
| 1150 | 3.55 | COc1cc(F)cc2c1nnc1c(C)nc(-c3cccc(F)c3C)n12 [Example 117, 8-fluoro-1-(3-fluoro-2-methylphenyl)-6-methoxy-3-methylimidazo[5,1-c][1,2,4]benzotriazine] |
| 269 | 1.64 | COc1cc(F)cc2c1nnc1c(C)nc(-c3sccc3C)n12 [Example 119, 8-fluoro-6-methoxy-3-methyl-1-(3-methylthiophen-2-yl)imidazo[5,1-c][1,2,4]benzotriazine] |
| > 10000 | 53.6 | COc1cc(F)cc2c1nnc1c(C)nc(-c3ccc(F)nc3C)n12 [Example 120, 8-fluoro-1-(6-fluoro-2-methylpyridin-3-yl)-6-methoxy-3-methylimidazo[5,1-c][1,2,4]benzotriazine] |
| > 1000 | 133 | COc1cc(F)cc2c1nnc1c(C)nc(-c3cnc(F)c(C)c3)n12 [Example 121, 8-fluoro-1-(6-fluoro-5-methylpyridin-3-yl)-6-methoxy-3-methylimidazo[5,1-c][1,2,4]benzotriazine] |
| 1620 | 39.3 | COc1cncc(-c2nc(C)c3nnc4c(OC)cc(F)cc4n23)c1 [Example 122, 8-fluoro-6-methoxy-1-(5-methoxypyridin-3-yl)-3-methylimidazo[5,1-c][1,2,4]benzotriazine] |
| 2380 | 25.4 | COc1cc(F)cc2c1nnc1c(C)nc(-c3cnccc3C)n12 [Example 123, 8-fluoro-6-methoxy-3-methyl-1-(4-methylpyridin-3-yl)imidazo[5,1-c][1,2,4]benzotriazine] |
| 1430 | 13 | COc1cc(F)cc2c1nnc1c(C)nc(-c3c(C)n[nH]c3C)n12 [Example 124, 1-(3,5-dimethyl-1H-pyrazol-4-yl)-8-fluoro-6-methoxy-3-methylimidazo[5,1-c][1,2,4]benzotriazine] |
| 117 | 12.1 | COc1cc(F)cc2c1nnc1c(C)nc(-c3cc(OC(F)(F)F)ccc3Cl)n12 [Example 125, 1-[2-chloro-5-(trifluoromethoxy)phenyl]-8-fluoro-6-methoxy-3-methylimidazo[5,1-c][1,2,4]benzotriazine] |
| 108 | 2.45 | COc1ccc(Cl)c(-c2nc(C)c3nnc4c(OC)cc(F)cc4n23)c1 [Example 126, 1-(2-chloro-5-methoxyphenyl)-8-fluoro-6-methoxy-3-methylimidazo[5,1-c][1,2,4]benzotriazine] |
| 3420 | 11.7 | COc1cc(F)cc2c1nnc1c(C)nc(-c3sc(C)nc3C)n12 [Example 127, 1-(2,4-dimethyl-1,3-thiazol-5-yl)-8-fluoro-6-methoxy-3-methylimidazo[5,1-c][1,2,4]benzotriazine] |
| 654 | 6.31 | COc1cc(F)cc2c1nnc1c(C)nc(-c3cc(C(N)=O)ccc3F)n12 [Example 128, 4-fluoro-3-(8-fluoro-6-methoxy-3-methylimidazo[5,1-c][1,2,4]benzotriazin-1-yl)benzamide] |
| 4950 | 61.6 | COc1cc(F)cc2c1nnc1c(C)nc(-c3ccncc3)n12 [Example 129, 8-fluoro-6-methoxy-3-methyl-1-pyridin-4-ylimidazo[5,1-c][1,2,4]benzotriazine] |
| 403 | 9.69 | Cc1nc(-c2cc(Cl)ccc2Cl)n2c1nnc1c(Cl)cc(C(F)(F)F)cc12 [Example 133, 6-chloro-1-(2,5-dichlorophenyl)-3-methyl-8-(trifluoromethyl)imidazo[5,1-c][1,2,4]benzotriazine] |
| 346 | 1.48 | COc1cc(C(F)(F)F)cc2c1nnc1c(C)nc(-c3ccncc3C)n12 [Example 134, 6-methoxy-3-methyl-1-(3-methylpyridin-4-yl)-8-(trifluoromethyl)benzo[e]imidazo[5,1-c][1,2,4]triazine] |
| > 1000 | 57 | COc1cc(C(F)(F)F)cc2c1nnc1c(C)nc(-c3ccoc3)n12 [Example 143, 1-(Furan-3-yl)-6-methoxy-3-methyl-8-(trifluoromethyl)benzo[e]imidazo[5,1-c][1,2,4]triazine] |
| 451 | 22 | COc1cc(O)cc2c1nnc1c(C)nc(-c3cnccc3C)n12 [Example 149, 6-methoxy-3-methyl-1-(4-methylpyridin-3-yl)benzo[e]imidazo[5,1-c][1,2,4]triazin-8-ol] |
| 944 | 7 | COc1cc(OC(F)F)cc2c1nnc1c(C)nc(-c3cnccc3C)n12 [Example 150, 8-(difluoromethoxy)-6-methoxy-3-methyl-1-(4-methylpyridin-3-yl)benzo[e]imidazo[5,1-c][1,2,4]triazine] |
| 80.6 | 0.7 | COc1cc(OCc2ccccc2)cc2c1nnc1c(C)nc(-c3ccncc3C)n12 [Example 151, 8-(benzyloxy)-6-methoxy-3-methyl-1-(3-methylpyridin-4-yl)imidazo[5,1-c][1,2,4]benzotriazine] |
| 105 | 3.05 | COc1cc(O)cc2c1nnc1c(C)nc(-c3ccncc3C)n12 [Example 152, 6-methoxy-3-methyl-1-(3-methylpyridin-4-yl)benzo[e]imidazo[5,1-c][1,2,4]triazin-8-ol] |
| 73.9 | 0.67 | COc1cc(OCc2ccccc2)cc2c1nnc1c(C)nc(-c3cccnc3C)n12 [Example 154, 8-(benzyloxy)-6-methoxy-3-methyl-1-(2-methylpyridin-3-yl)imidazo[5,1-c][1,2,4]benzotriazine] |
